pIC50: −log10 of the molar value.
Tests used:
A549 = assay: Antiproliferative activity against human A549 cells assessed as cell growth inhibition incubated for 44 hrs by MTT assay; assay type: functional, cell-based; settings: A549, 44 h
[1] = Cytotoxicity against human fR2 cells assessed as cell growth inhibition incubated for 44 hrs by MTT assay; assay type: toxicity, cell-based
HCT-116 = assay: Antiproliferative activity against human HCT-116 cells assessed as cell growth inhibition incubated for 44 hrs by MTT assay; assay type: functional, cell-based; settings: HCT-116, 44 h
PC-3 [2] = assay: Antiproliferative activity against human PC-3 cells assessed as cell growth inhibition incubated for 44 hrs by MTT assay; assay type: functional, cell-based; settings: PC-3, 44 h
MCF7 = assay: Antiproliferative activity against human MCF7 cells assessed as cell growth inhibition incubated for 44 hrs by MTT assay; assay type: functional, cell-based; settings: MCF7, 44 h
SGC-7901 = assay: Cytotoxicity against human SGC-7901 cells; assay type: functional, cell-based
HL-60 = assay: Cytotoxicity against human HL-60 cells; assay type: functional, cell-based
PC-3 [3] = assay: Cytotoxicity against human PC-3 cells; assay type: functional, cell-based

Row | pIC50 (A549) | pIC50 (HCT-116) | pIC50 (PC-3 [2]) | pIC50 (MCF7) | SMILES | IC50 at 44 h [1] | pIC50 (SGC-7901) | pIC50 (HL-60) | pIC50 (PC-3 [3])
1 | 4.69 | 4.56 | < 4.00 | < 4.00 | COC(=O)[C@@H]1Cc2c([nH]c3ccccc23)[C@@](C(=O)OC)([C@H]2CCNC2=O)N1 | > 100 µM |  |  | 
2 | < 4.00 | < 4.00 | < 4.00 | < 4.00 | COC(=O)[C@]1([C@H]2CCN(C(=O)c3ccc(Cl)cc3[N+](=O)[O-])C2=O)NCCc2c1[nH]c1ccccc21 (racemic) | > 100 µM |  |  | 
3 | 4.96 | 5.06 | 4.95 | 5.08 | COC(=O)[C@]1([C@H]2CCN(C(=O)c3ccc(Cl)cc3Cl)C2=O)NCCc2c1[nH]c1ccccc21 (racemic) | > 100 µM |  |  | 
4 | 5.11 | 4.99 | 4.77 | < 5.30 | COC(=O)[C@]1([C@H]2CCN(C(=O)c3ccc(F)cc3)C2=O)NCCc2c1[nH]c1ccccc21 (racemic) | 35.8 µM |  |  | 
5 | < 4.00 | < 4.00 | < 4.00 | < 4.00 | CCOC(=O)[C@]1([C@H]2CCNC2=O)NCCc2c1[nH]c1ccccc21 (racemic) | > 100 µM |  |  | 
6 | 4.97 | < 4.00 | < 4.00 | 4.55 | CCOC(=O)[C@]1([C@H]2CCN(C(=O)c3ccccc3[N+](=O)[O-])C2=O)NCCc2c1[nH]c1ccccc21 (racemic) | > 100 µM |  |  | 
7 | 4.63 | 4.59 | < 4.00 | < 4.00 | COC(=O)[C@]1([C@H]2CCN(C(=O)C3CCC3)C2=O)NCCc2c1[nH]c1ccccc21 (racemic) | > 100 µM |  |  | 
8 | 5.19 | 5.06 | 5.22 | 5.16 | COC(=O)[C@]1([C@H]2CCN(C(=O)c3ccccc3F)C2=O)NCCc2c1[nH]c1ccccc21 (racemic) | > 100 µM |  |  | 
9 | 4.69 | 4.71 | < 4.00 | < 4.00 | COC(=O)[C@]1([C@H]2CCN(C(=O)c3ccc(Cl)cc3)C2=O)NCCc2c1[nH]c1ccccc21 (racemic) | > 100 µM |  |  | 
10 | 5.28 | 5.27 | 4.36 | 4.32 | COC(=O)[C@]1([C@H]2CCCN(C(=O)c3ccccc3Cl)C2=O)NCCc2c1[nH]c1ccccc21 (racemic) | > 100 µM |  |  | 
11 | 4.79 | 4.95 | 4.22 | < 4.00 | COC(=O)[C@]1([C@H]2CCN(C(=O)c3ccc(C)cc3C)C2=O)NCCc2c1[nH]c1ccccc21 (racemic) | > 100 µM |  |  | 
12 | 5.95 | 5.38 | 5.62 | 5.79 | COC(=O)[C@]1([C@H]2CCN(C(=O)c3ccccc3Cl)C2=O)NCCc2c1[nH]c1ccccc21 (racemic) | 20 µM |  |  | 
13 | 4.79 | < 4.00 | < 4.00 | < 4.00 | COC(=O)[C@]1([C@H]2CCN(C(=O)c3ccc(C)cc3[N+](=O)[O-])C2=O)NCCc2c1[nH]c1ccccc21 (racemic) | > 100 µM |  |  | 
14 | 4.14 | 4.25 | 4.64 | 4.69 | CCOC(=O)[C@]1([C@H]2CCN(C(=O)c3ccccc3Cl)C2=O)NCCc2c1[nH]c1ccccc21 (racemic) | 84 µM |  |  | 
15 | 5.10 | 5.27 | 5.19 | 5.16 | COC(=O)[C@]1([C@H]2CCCCn3c2nc2ccccc2c3=O)NCCc2c1[nH]c1ccccc21 | 35.6 µM |  |  | 
16 | 5.28 | 4.81 | 4.91 | 5.21 | COC(=O)[C@]1([C@H]2CCn3c2nc2ccccc2c3=O)NCCc2c1[nH]c1cc(OC)ccc21 (racemic) | 17.9 µM | 4.60 | 5.04 | 4.67
17 | < 4.00 | < 4.00 | < 4.00 | 4.03 | COC(=O)[C@]1([C@H]2CCCCNC2=O)NCCc2c1[nH]c1ccccc21 | > 100 µM |  |  | 

Row | pIC50 (A549) | pIC50 (HCT-116) | pIC50 (PC-3 [2]) | pIC50 (MCF7) | SMILES | IC50 at 44 h [1] | pIC50 (SGC-7901) | pIC50 (HL-60) | pIC50 (PC-3 [3])
18 | < 4.00 | < 4.00 | 4.46 | < 4.00 | COC(=O)[C@]1([C@H]2CCCNC2=O)NCCc2c1[nH]c1ccccc21 | > 100 µM |  |  | 
19 | 4.78 | < 4.00 | < 4.00 | 4.09 | COC(=O)[C@]1([C@H]2CCNC2=O)NCCc2c1[nH]c1cc(OC)ccc21 | > 100 µM |  |  | 
20 | 4.98 | 5.20 | 4.88 | 5.21 | COC(=O)[C@@H]1Cc2c([nH]c3ccccc23)[C@@](C(=O)OC)([C@H]2CCCn3c2nc2ccccc2c3=O)N1 | 33.2 µM |  |  | 
21 | 5.16 | 5.38 | 5.31 | 5.48 | COC(=O)[C@]1([C@H]2CCCn3c2nc2ccccc2c3=O)NCCc2c1[nH]c1ccccc21 | 93.6 µM |  |  | 
22 | < 4.00 | 5.13 | 4.04 | < 4.00 | COC(=O)[C@]1([C@@H]2CCNC2=O)NCCc2c1[nH]c1cc(OC)ccc21 | > 100 µM |  |  | 
23 | < 4.00 | < 4.00 | < 4.00 | 4.29 | COC(=O)[C@]1([C@H]2CCN(C(=O)c3ccccc3[N+](=O)[O-])C2=O)NCCc2c1[nH]c1ccccc21 | > 100 µM |  |  | 
24 | 4.40 | 4.59 | 4.12 | < 4.00 | COC(=O)[C@]1([C@H]2CCNC2=O)NCCc2c1[nH]c1ccccc21 | > 100 µM |  |  | 
25 | 5.30 | 5.24 | 5.15 | 5.08 | COC(=O)[C@]1([C@H]2CCN(C(=O)c3ccccc3I)C2=O)NCCc2c1[nH]c1ccccc21 (racemic) | > 100 µM |  |  | 
26 | 6.07 | 5.52 | 4.87 | 5.35 | COC(=O)[C@]1([C@H]2CCN(C(=O)c3ccc(C(F)(F)F)cc3Cl)C2=O)NCCc2c1[nH]c1ccccc21 (racemic) | 39.2 µM |  |  | 
27 | 4.90 | 5.21 | 4.51 | 4.79 | COC(=O)[C@]1([C@H]2CCN(C(=O)c3ccccc3[N+](=O)[O-])C2=O)NCCc2c1[nH]c1cc(OC)ccc21 | 17.8 µM |  |  | 
28 | 4.76 | 4.78 | < 4.00 | < 4.00 | COC(=O)[C@]1([C@H]2CCN(C(=O)c3ccccc3)C2=O)NCCc2c1[nH]c1ccccc21 (racemic) | > 100 µM |  |  | 
29 | 5.47 | 5.41 | 5.21 | 5.09 | COC(=O)[C@]1([C@H]2CCN(C(=O)c3ccccc3Br)C2=O)NCCc2c1[nH]c1ccccc21 (racemic) | 89.8 µM |  |  | 
30 | 4.41 | 4.38 | < 4.00 | 4.29 | COC(=O)[C@]1([C@H]2CCCN(C(=O)c3ccccc3[N+](=O)[O-])C2=O)NCCc2c1[nH]c1ccccc21 | > 100 µM |  |  | 
31 | 4.71 | < 4.00 | < 4.00 | < 4.00 | COC(=O)[C@@H]1Cc2c([nH]c3ccccc23)[C@@](C(=O)OC)([C@H]2CCCN(C(=O)c3ccccc3[N+](=O)[O-])C2=O)N1 | > 100 µM |  |  | 
32 | 4.75 | 4.85 | 4.02 | 4.80 | COC(=O)[C@]1([C@H]2CCN(C(=O)c3cccs3)C2=O)NCCc2c1[nH]c1ccccc21 (racemic) | 39.2 µM |  |  | 
33 | 4.45 | 4.82 | 4.44 | 5.13 | COC(=O)[C@]1([C@H]2CCCCN(C(=O)c3ccccc3[N+](=O)[O-])C2=O)NCCc2c1[nH]c1ccccc21 | 30.2 µM |  |  | 

— ChEMBL document CHEMBL5325471, “Identification of new modulator of DNA repairing pathways based on natural product (±)-peharmaline A” (Bioorg Med Chem, 2023)
